Test results as given in ChEMBL document CHEMBL1151640, “Benzoxazolinone, 2,4-Dihydroxy-1,4-benzoxazin-3-one, and Its Glucoside from Acanthus mollis Seeds Inhibit Velvetleaf Germination and Growth” (1985).

Assays:
[1] = system: Abutilon theophrasti; assay: Phytotoxicity against Abutilon theophrasti assessed as seed germination at 5 mM after 2 days relative to control; type: functional
[2] = system: Abutilon theophrasti; assay: Phytotoxicity against Abutilon theophrasti assessed as seed germination at 2 mM after 2 days relative to control; type: functional
[3] = system: Abutilon theophrasti; assay: Phytotoxicity against Abutilon theophrasti assessed as seed germination at 1 mM after 2 days relative to control; type: functional
[4] = system: Abutilon theophrasti; assay: Phytotoxicity against Abutilon theophrasti assessed as seed germination at 0.8 mM after 2 days relative to control; type: functional
[5] = system: Abutilon theophrasti; assay: Phytotoxicity against Abutilon theophrasti assessed as seed germination at 0.6 mM after 2 days relative to control; type: functional
[6] = system: Abutilon theophrasti; assay: Phytotoxicity against Abutilon theophrasti assessed as seed germination at 1 mM after 4 days relative to control; type: functional
[7] = system: Abutilon theophrasti; assay: Phytotoxicity against Abutilon theophrasti assessed as seed germination at 0.8 mM after 4 days relative to control; type: functional
[8] = system: Abutilon theophrasti; assay: Phytotoxicity against Abutilon theophrasti assessed as seed germination at 0.6 mM after 4 days relative to control; type: functional
[9] = system: Abutilon theophrasti; assay: Phytotoxicity against Abutilon theophrasti assessed as seed germination at 2 mM after 2 weeks; type: functional, organism-based
[10] = system: Abutilon theophrasti; assay: Phytotoxicity against Abutilon theophrasti assessed as seed germination at 2 mM after 4 days relative to control; type: functional
[11] = system: Abutilon theophrasti; assay: Phytotoxicity against Abutilon theophrasti assessed as seed germination at 0.5 mM after 2 days relative to control; type: functional
[12] = system: Abutilon theophrasti; assay: Phytotoxicity against Abutilon theophrasti assessed as seed germination at 5 mM after 4 days relative to control; type: functional
[13] = system: Abutilon theophrasti; assay: Phytotoxicity against Abutilon theophrasti assessed as seed germination at 0.5 mM after 4 days relative to control; type: functional

Row | SMILES | Activity [1] | Activity [2] | Activity [3] | Activity [4] | Activity [5] | Activity [6] | Activity [7] | Activity [8] | Activity [9] | Activity [10] | Activity [11] | Activity [12] | Activity [13]
1 | O=C1C(O[C@@H]2O[C@H](CO)[C@@H](O)[C@H](O)[C@H]2O)Oc2ccccc2N1O (stereo partly specified) | 89% | – | – | – | – | – | – | – | – | – | – | – | –
2 | O=C1C(O)Oc2ccccc2N1O (stereo unspecified) | – | 0% | 6% | 40% | 59% | 72% | 82% | 97% | Toxic | 0% | – | – | –
3 | O=c1[nH]c2ccccc2o1 [BENZOXAZOLINONE] | 14% | – | 111% | – | – | 116% | – | – | – | – | 118% | 75% | 125%
